Results reported in PubChem BioAssay (NCI).
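All cell lines were grown in 96-well plates and treated with compound for 48 hours. GI50 marks 50% less growth. Definition used: TGI = concentration required for complete inhibition of growth.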

What was measured:
Test in all cases: inhibition of tumour cell growth, NCI panel, 48 h
OVCAR-3 ovarian = tested on: OVCAR-3 ovarian
MCF7 breast = tested on: MCF7 breast
MDA-MB-435 = tested on: MDA-MB-435
OVCAR-8 ovarian = tested on: OVCAR-8 ovarian
RPMI-8226 leukemia = tested on: RPMI-8226 leukemia
HT29 colon = tested on: HT29 colon
M14 melanoma = tested on: M14 melanoma
IGROV1 ovarian = tested on: IGROV1 ovarian
TK-10 renal = tested on: TK-10 renal
HCT-116 colon = tested on: HCT-116 colon
OVCAR-4 ovarian = tested on: OVCAR-4 ovarian
SNB-75 CNS = tested on: SNB-75 CNS
786-0 renal = tested on: 786-0 renal
SR leukemia = tested on: SR leukemia
A498 renal = tested on: A498 renal
SW-620 colon = tested on: SW-620 colon
SN12C renal = tested on: SN12C renal
A549 NSCLC = tested on: A549 NSCLC
UO-31 renal = tested on: UO-31 renal
MDA-MB-231 breast = tested on: MDA-MB-231 breast
SNB-19 CNS = tested on: SNB-19 CNS
NCI-H522 lung = tested on: NCI-H522 lung
SK-MEL-28 melanoma = tested on: SK-MEL-28 melanoma
U251 CNS = tested on: U251 CNS
MALME-3M melanoma = tested on: MALME-3M melanoma
SK-MEL-2 melanoma = tested on: SK-MEL-2 melanoma
MOLT-4 leukemia = tested on: MOLT-4 leukemia
UACC-257 melanoma = tested on: UACC-257 melanoma
KM12 colon = tested on: KM12 colon
NCI-H226 lung = tested on: NCI-H226 lung
LOX IMVI melanoma = tested on: LOX IMVI melanoma
SK-OV-3 ovarian = tested on: SK-OV-3 ovarian
SF-268 CNS = tested on: SF-268 CNS
NCI-H23 lung = tested on: NCI-H23 lung
K-562 leukemia = tested on: K-562 leukemia
RXF 393 renal = tested on: RXF 393 renal
DU-145 prostate = tested on: DU-145 prostate
HOP-62 NSCLC = tested on: HOP-62 NSCLC
HS 578T breast = tested on: HS 578T breast
HL-60(TB) leukemia = tested on: HL-60(TB) leukemia
T-47D breast = tested on: T-47D breast
HCC-2998 colon = tested on: HCC-2998 colon
CCRF-CEM leukemia = tested on: CCRF-CEM leukemia
SK-MEL-5 melanoma = tested on: SK-MEL-5 melanoma
NCI-H460 lung = tested on: NCI-H460 lung
SF-295 CNS = tested on: SF-295 CNS
UACC-62 melanoma = tested on: UACC-62 melanoma
HOP-92 NSCLC = tested on: HOP-92 NSCLC
BT-549 breast = tested on: BT-549 breast
PC-3 prostate = tested on: PC-3 prostate
COLO 205 colon = tested on: COLO 205 colon
EKVX NSCLC = tested on: EKVX NSCLC
CAKI-1 renal = tested on: CAKI-1 renal
NCI/ADR-RES ovarian = tested on: NCI/ADR-RES ovarian
OVCAR-5 ovarian = tested on: OVCAR-5 ovarian
ACHN renal = tested on: ACHN renal
HCT-15 colon = tested on: HCT-15 colon
SF-539 CNS = tested on: SF-539 CNS

CCN(CC)Cc1cc(Nc2c3ccc(Cl)cc3nc3ccc(OC)cc23)ccc1O
GI50 (OVCAR-3 ovarian): 7.59 µM
TGI (OVCAR-3 ovarian): 22.7 µM
GI50 (MCF7 breast): 1.6 µM
TGI (MCF7 breast): 4.04 µM
GI50 (MDA-MB-435): 2.29 µM
TGI (MDA-MB-435): 6 µM
GI50 (OVCAR-8 ovarian): 3.68 µM
TGI (OVCAR-8 ovarian): 12.6 µM
GI50 (RPMI-8226 leukemia): 2.8 µM
TGI (RPMI-8226 leukemia): 6.63 µM
GI50 (HT29 colon): 2.26 µM
TGI (HT29 colon): 5.03 µM
GI50 (M14 melanoma): 1.88 µM
TGI (M14 melanoma): 3.43 µM
GI50 (IGROV1 ovarian): 5.11 µM
TGI (IGROV1 ovarian): 21.1 µM
GI50 (TK-10 renal): 7.09 µM
TGI (TK-10 renal): 20 µM
GI50 (HCT-116 colon): 2.34 µM
TGI (HCT-116 colon): 6.32 µM
GI50 (OVCAR-4 ovarian): 3.66 µM
TGI (OVCAR-4 ovarian): 13.1 µM
GI50 (SNB-75 CNS): 5.07 µM
TGI (SNB-75 CNS): 18.9 µM
GI50 (786-0 renal): 4.21 µM
TGI (786-0 renal): 15.2 µM
GI50 (SR leukemia): 3.32 µM
TGI (SR leukemia): 8.99 µM
GI50 (A498 renal): 13.9 µM
TGI (A498 renal): 27.5 µM
GI50 (SW-620 colon): 3.25 µM
TGI (SW-620 colon): 11.1 µM
GI50 (SN12C renal): 5.61 µM
TGI (SN12C renal): 18.3 µM
GI50 (A549 NSCLC): 5.59 µM
TGI (A549 NSCLC): 21.2 µM
GI50 (UO-31 renal): 4.16 µM
TGI (UO-31 renal): 16.1 µM
GI50 (MDA-MB-231 breast): 4.28 µM
TGI (MDA-MB-231 breast): 15.1 µM
GI50 (SNB-19 CNS): 6.4 µM
TGI (SNB-19 CNS): 19.3 µM
GI50 (NCI-H522 lung): 4.62 µM
TGI (NCI-H522 lung): 16.5 µM
GI50 (SK-MEL-28 melanoma): 1.77 µM
TGI (SK-MEL-28 melanoma): 3.26 µM
GI50 (U251 CNS): 3.04 µM
TGI (U251 CNS): 13.2 µM
GI50 (MALME-3M melanoma): 2.13 µM
TGI (MALME-3M melanoma): 4.21 µM
GI50 (SK-MEL-2 melanoma): 2.36 µM
TGI (SK-MEL-2 melanoma): 4.6 µM
GI50 (MOLT-4 leukemia): 4.14 µM
TGI (MOLT-4 leukemia): 12.2 µM
GI50 (UACC-257 melanoma): 2.17 µM
TGI (UACC-257 melanoma): 3.89 µM
GI50 (KM12 colon): 3.17 µM
TGI (KM12 colon): 14.5 µM
GI50 (NCI-H226 lung): 7.28 µM
TGI (NCI-H226 lung): 21.4 µM
GI50 (LOX IMVI melanoma): 2 µM
TGI (LOX IMVI melanoma): 3.82 µM
GI50 (SK-OV-3 ovarian): 11.1 µM
TGI (SK-OV-3 ovarian): 23.4 µM
GI50 (SF-268 CNS): 4.33 µM
TGI (SF-268 CNS): 18.5 µM
GI50 (NCI-H23 lung): 6.86 µM
TGI (NCI-H23 lung): 23.3 µM
GI50 (K-562 leukemia): 2.65 µM
TGI (K-562 leukemia): 6.39 µM
GI50 (RXF 393 renal): 1.73 µM
TGI (RXF 393 renal): 4.36 µM
GI50 (DU-145 prostate): 5.01 µM
TGI (DU-145 prostate): 18.3 µM
GI50 (HOP-62 NSCLC): 2.89 µM
TGI (HOP-62 NSCLC): 10.9 µM
GI50 (HS 578T breast): 12.2 µM
TGI (HS 578T breast): 33.1 µM
GI50 (HL-60(TB) leukemia): 5.32 µM
TGI (HL-60(TB) leukemia): 25.5 µM
GI50 (T-47D breast): 2.41 µM
TGI (T-47D breast): 7.25 µM
GI50 (HCC-2998 colon): 2.16 µM
TGI (HCC-2998 colon): 3.78 µM
GI50 (CCRF-CEM leukemia): 3.86 µM
TGI (CCRF-CEM leukemia): 55.6 µM
GI50 (SK-MEL-5 melanoma): 2.9 µM
TGI (SK-MEL-5 melanoma): 10.3 µM
GI50 (NCI-H460 lung): 4.03 µM
TGI (NCI-H460 lung): 14.4 µM
GI50 (SF-295 CNS): 3.5 µM
TGI (SF-295 CNS): 17.1 µM
GI50 (UACC-62 melanoma): 2.11 µM
TGI (UACC-62 melanoma): 4.31 µM
GI50 (HOP-92 NSCLC): 16.5 µM
TGI (HOP-92 NSCLC): 31 µM
GI50 (BT-549 breast): 17.2 µM
TGI (BT-549 breast): 31.4 µM
GI50 (PC-3 prostate): 5.76 µM
TGI (PC-3 prostate): 22 µM
GI50 (COLO 205 colon): 1.79 µM
TGI (COLO 205 colon): 3.34 µM
GI50 (EKVX NSCLC): 12 µM
TGI (EKVX NSCLC): 34.7 µM
GI50 (CAKI-1 renal): 2.89 µM
TGI (CAKI-1 renal): 11.7 µM
GI50 (NCI/ADR-RES ovarian): 4.7 µM
TGI (NCI/ADR-RES ovarian): 17.8 µM

CC(=O)Oc1c(-c2ccccc2)oc2ccccc12
TGI (OVCAR-3 ovarian): 6.02 µM
TGI (OVCAR-5 ovarian): 3.66 µM
TGI (MCF7 breast): 4.3 µM
TGI (MDA-MB-435): 6.95 µM
TGI (OVCAR-8 ovarian): 12.5 µM
TGI (RPMI-8226 leukemia): 2.67 µM
TGI (ACHN renal): 3.28 µM
TGI (HT29 colon): 5.75 µM
TGI (M14 melanoma): 5.17 µM
TGI (IGROV1 ovarian): 6.56 µM
TGI (HCT-15 colon): 5.97 µM
TGI (TK-10 renal): 14 µM
TGI (HCT-116 colon): 4.12 µM
TGI (OVCAR-4 ovarian): 9.85 µM
TGI (SNB-75 CNS): 6.35 µM
TGI (786-0 renal): 14.2 µM
TGI (SR leukemia): 1.59 µM
TGI (A498 renal): 9.72 µM
TGI (SW-620 colon): 11.8 µM
TGI (SN12C renal): 4.68 µM
TGI (A549 NSCLC): 3.33 µM
TGI (UO-31 renal): 3.96 µM
TGI (MDA-MB-231 breast): 2.86 µM
TGI (SNB-19 CNS): 11.6 µM
TGI (NCI-H522 lung): 5 µM
TGI (SK-MEL-28 melanoma): 6.56 µM
TGI (U251 CNS): 2.76 µM
TGI (MALME-3M melanoma): 5.54 µM
TGI (SK-MEL-2 melanoma): 4.35 µM
TGI (MOLT-4 leukemia): 4.53 µM
TGI (UACC-257 melanoma): 6.04 µM
TGI (KM12 colon): 2.35 µM
TGI (NCI-H226 lung): 5.2 µM
TGI (LOX IMVI melanoma): 1.41 µM
TGI (SF-268 CNS): 6.3 µM
TGI (NCI-H23 lung): 4.15 µM
TGI (K-562 leukemia): 4.13 µM
TGI (RXF 393 renal): 3.59 µM
TGI (DU-145 prostate): 13.9 µM
TGI (HOP-62 NSCLC): 6 µM
TGI (HS 578T breast): 6.38 µM
TGI (HL-60(TB) leukemia): 2.69 µM
TGI (T-47D breast): 5.9 µM
TGI (SF-539 CNS): 2.86 µM
TGI (HCC-2998 colon): 2.8 µM
TGI (CCRF-CEM leukemia): 3.93 µM
TGI (SK-MEL-5 melanoma): 2.8 µM
TGI (NCI-H460 lung): 2.44 µM
TGI (SF-295 CNS): 2.58 µM
TGI (UACC-62 melanoma): 8.49 µM
TGI (HOP-92 NSCLC): 5.4 µM
TGI (BT-549 breast): 7.05 µM
TGI (PC-3 prostate): 4.55 µM
TGI (COLO 205 colon): 3.77 µM
TGI (EKVX NSCLC): 3.99 µM
TGI (CAKI-1 renal): 2.62 µM
TGI (NCI/ADR-RES ovarian): 9.29 µM
